# Measurements published in patent publication US9956201B2, “Compositions comprising bioreversible derivatives of hydroxy N-substituted-2-aminotetralins, and related dosage forms” (Spriaso LLC, priority 2014, dated 2018).
# Legend:
# [1] = Apparent lipophilicity log D at pH 7.4 (octanol / pH 7.4 surfactant free buffer); format: physicochemical
# Description: The log DpH=7.4 value is a log of the distribution efficiency (ratio of concentrations of the disclosed bioreversible derivatives in octanol solvent to a pH 7.4 aqueous surfactant free buffer media).
# TABLE 5 summarized the intrinsic lipophilicity and apparent lipophilicity of hydroxy N-substituted-2-aminotetralins in comparison with those of some examples of the corresponding bioreversible derivatives according to the disclosure.
# [2] = cited from earlier work
# [3] = Pharmacokinetics of dosage forms at varied doses of Composition 1c-10 containing caprate ester A10; format: in vivo; conditions: serum rotigotine, human, oral, Composition 1c-10 with A10
# Protocol: Serial blood samples were drawn at predetermined time (e.g., t=0, 12, 24, etc.) and analyzed for rotigotine concentration using a validated HPLC-MS/MS analytical method. The rotigotine Cmax, ratio of rotiogtine peak levels to rotigotine equivalent, Cmax/mg, rotiogotine Cavgt1-t2, rotigotine steady state maximum concentration, Css-max, rotigotine AUCt1-t2 and ratio of rotigotine area under the curve to rotigotine equivalent dose in mg, AUCt1-t2/mg, were calculated in the serum of the subjects. Pharmacokinetic and statistical analyses were performed on the data obtained from the subjects, the pharmacokinetic parameters were defined as follows:
# […] Serial blood samples were drawn for the human subjects at predetermined time (e.g., t=0, 12, 24, etc.) and analyzed to determine pharmacokinetic parameters in the serum of the subjects.
# [4] = no method; cited from earlier work
# [5] = dose 0.1 mg as rotigotine equivalent
# [6] = dose 500 mg as rotigotine equivalent
Apparent Lipophilicity logD7.4 [1],SMILES,pKa [4],further results
>4,CCCCCCCCCC(=O)Oc1cccc2c1CCC(N(CCC)CCc1cccs1)C2 (stereo not drawn) [Compound A10],–,"Mean AUC/mg [3, 5]: <1.25 × 10^−9 hr..^−1; Mean Cmax/mg [3, 5]: <1e-10 mL⁻¹; Mean AUC/mg [3, 6]: >188 × 10^−6 hr..^−1; Mean Cmax/mg [3, 6]: >1.2e-05 mL⁻¹"
6.5-7.5,CCCCCCCCCCCCCCCC(=O)Oc1cccc2c1CCC(NCCC)C2 (stereo not drawn) [Compound B5],–,–
–,"CCCN(CCC)C1CCc2cccc(O)c2C1 (stereo not drawn) [Compound C1, 8-hydroxy-N,N-dipropyl-2-aminotetralin]",about 10.54,–
–,"CCCN(CCC)C1CCc2ccc(O)cc2C1 (stereo not drawn) [Compound C2, 7-hydroxy-N,N-dipropyl-2-aminotetralin]",about 10.54,–
–,"CCCN(CCC)C1CCc2c(O)cccc2C1 (stereo not drawn) [Compound C3, 5-hydroxy-N,N-dipropyl-2-aminotetralin]",about 10.5,–
6.5-7.5,"CCCCCCCCCCCC(=O)Oc1cccc2c1CC(N(CCC)CCC)CC2 (stereo not drawn) [Compound C7, Laurate (C12) Ester of 8-OH-DPAT]",–,–
–,CCCN(CCc1cccs1)[C@H]1CCc2c(O)cccc2C1 [Compound N-0923],–,bioavailability after oral administration ([2]; animal model): about 0.5%

SMILES,Apparent Lipophilicity logD7.4 [1],pKa [4],further results
"CCCN(CCc1cccs1)[C@H]1CCc2c(O)cccc2C1 [Compound A1, (S)-6-[propyl(2-thiophen-2-ylethyl)amino]-5,6,7,8-tetrahydronaphthalen-1-ol]",1-1.9,–,activity upon oral administration ([2]; preclinical data): zero to limited activity
"CCCN[C@H]1CCc2c(O)cccc2C1 [Compound B1, (6S)-(−)-5-hydroxy-N-propyl-2-aminotetralin]",−0.5,about 10.6,–
